# Assay results taken from the supplement of paper PMC10307832.
# Assays:
# Test in all cases: relative viability (nuclei count vs DMSO), 5 days (fraction); higher = more cells survive
# ChaGo-K-1 = test system: ChaGo-K-1
# In short: (§1)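 Lung cancer cell lines in 1536-well plates got either a single drug or a fixed anchor-drug dose together with five library-drug doses (not always all listed) in √10 steps, by pin tool, on the day after seeding. Nuclei were counted after 5 days, and relative viability is the treated-to-vehicle ratio of nuclei counts. Values are medians of duplicate plates.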
# A-427 = test system: A-427
# In short: as §1
# CAL-12T = test system: CAL-12T
# In short: as §1
# NCI-H2009 = test system: NCI-H2009
# In short: as §1
# NCI-H1395 = test system: NCI-H1395
# In short: as §1
# SK-MES-1 = test system: SK-MES-1
# In short: as §1
# LCLC-103H = test system: LCLC-103H
# In short: as §1
# NCI-H441 = test system: NCI-H441
# In short: as §1
# LU99A = test system: LU99A
# In short: as §1
# EPLC-272H = test system: EPLC-272H
# In short: as §1
# NCI-H1975 = test system: NCI-H1975
# In short: as §1
# NCI-H727 = test system: NCI-H727
# In short: as §1
# NCI-H1793 = test system: NCI-H1793
# In short: as §1
# NCI-H460 = test system: NCI-H460
# In short: as §1
# NCI-H650 = test system: NCI-H650
# In short: as §1
# BEN = test system: BEN
# In short: as §1
# LXF-289 = test system: LXF-289
# In short: as §1
# NCI-H2342 = test system: NCI-H2342
# In short: as §1
# COR-L 105 = test system: COR-L 105
# In short: as §1
# NCI-H2347 = test system: NCI-H2347
# In short: as §1
# NCI-H358 = test system: NCI-H358
# In short: as §1
# NCI-H1650 = test system: NCI-H1650
# In short: as §1
# HOP-62 = test system: HOP-62
# In short: as §1
# NCI-H1993 = test system: NCI-H1993
# In short: as §1
# NCI-H1666 = test system: NCI-H1666
# In short: as §1
smiles,measurement,setting,value
Nc1cccc2c1CN(C1CCC(=O)NC1=O)C2=O (stereo unspecified) [Lenalidomide] + O=C(CCCCCCC(=O)Nc1ccccc1)NO [Vorinostat] (partner 1 µM),relative viability,ChaGo-K-1; first compound 0.253 µM,0.773
same,relative viability,ChaGo-K-1; first compound 0.8 µM,0.753
same,relative viability,ChaGo-K-1; first compound 2.53 µM,0.838
same,relative viability,ChaGo-K-1; first compound 8 µM,0.694
same,relative viability,A-427; first compound 0.253 µM,0.871
same,relative viability,A-427; first compound 0.8 µM,0.898
same,relative viability,A-427; first compound 2.53 µM,0.878
same,relative viability,A-427; first compound 8 µM,0.873
same,relative viability,CAL-12T; first compound 0.253 µM,0.874
same,relative viability,CAL-12T; first compound 0.8 µM,0.887
same,relative viability,CAL-12T; first compound 2.53 µM,0.999
same,relative viability,CAL-12T; first compound 8 µM,0.907
same,relative viability,NCI-H2009; first compound 0.253 µM,0.686
same,relative viability,NCI-H2009; first compound 0.8 µM,0.72
same,relative viability,NCI-H2009; first compound 2.53 µM,0.852
same,relative viability,NCI-H2009; first compound 8 µM,0.769
same,relative viability,NCI-H1395; first compound 0.253 µM,0.807
same,relative viability,NCI-H1395; first compound 2.53 µM,0.736
same,relative viability,NCI-H1395; first compound 8 µM,0.567
same,relative viability,SK-MES-1; first compound 0.253 µM,0.99
same,relative viability,SK-MES-1; first compound 0.8 µM,0.881
same,relative viability,SK-MES-1; first compound 2.53 µM,1.19
same,relative viability,SK-MES-1; first compound 8 µM,1.06
same,relative viability,LCLC-103H; first compound 0.253 µM,0.761
same,relative viability,LCLC-103H; first compound 0.8 µM,0.679
same,relative viability,LCLC-103H; first compound 2.53 µM,0.818
same,relative viability,LCLC-103H; first compound 8 µM,0.616
same,relative viability,NCI-H441; first compound 0.253 µM,0.77
same,relative viability,NCI-H441; first compound 0.8 µM,0.757
same,relative viability,NCI-H441; first compound 2.53 µM,0.863
same,relative viability,NCI-H441; first compound 8 µM,0.944
same,relative viability,LU99A; first compound 0.253 µM,0.461
same,relative viability,LU99A; first compound 0.8 µM,0.425
same,relative viability,LU99A; first compound 2.53 µM,0.559
same,relative viability,LU99A; first compound 8 µM,0.263
same,relative viability,EPLC-272H; first compound 0.253 µM,0.481
same,relative viability,EPLC-272H; first compound 2.53 µM,0.296
same,relative viability,EPLC-272H; first compound 8 µM,0.451
same,relative viability,NCI-H1975; first compound 0.253 µM,0.72
same,relative viability,NCI-H1975; first compound 0.8 µM,0.768
same,relative viability,NCI-H1975; first compound 2.53 µM,0.736
same,relative viability,NCI-H1975; first compound 8 µM,0.744
same,relative viability,NCI-H727; first compound 0.253 µM,1.26
same,relative viability,NCI-H727; first compound 0.8 µM,1.04
same,relative viability,NCI-H727; first compound 2.53 µM,1.32
same,relative viability,NCI-H727; first compound 8 µM,1.22
same,relative viability,NCI-H1793; first compound 0.253 µM,0.739
same,relative viability,NCI-H1793; first compound 2.53 µM,1.02
same,relative viability,NCI-H1793; first compound 8 µM,0.35
same,relative viability,NCI-H460; first compound 0.253 µM,0.815
same,relative viability,NCI-H460; first compound 0.8 µM,0.715
same,relative viability,NCI-H460; first compound 2.53 µM,1.03
same,relative viability,NCI-H460; first compound 8 µM,0.783
same,relative viability,NCI-H650; first compound 0.253 µM,0.492
same,relative viability,NCI-H650; first compound 0.8 µM,0.446
same,relative viability,NCI-H650; first compound 2.53 µM,0.59
same,relative viability,NCI-H650; first compound 8 µM,0.322
same,relative viability,BEN; first compound 0.253 µM,0.559
same,relative viability,BEN; first compound 0.8 µM,0.5
same,relative viability,BEN; first compound 2.53 µM,0.617
same,relative viability,BEN; first compound 8 µM,0.545
same,relative viability,LXF-289; first compound 0.253 µM,0.812
same,relative viability,LXF-289; first compound 0.8 µM,0.625
same,relative viability,LXF-289; first compound 2.53 µM,0.798
same,relative viability,LXF-289; first compound 8 µM,0.838
same,relative viability,NCI-H2342; first compound 0.253 µM,0.744
same,relative viability,NCI-H2342; first compound 0.8 µM,0.599
same,relative viability,NCI-H2342; first compound 2.53 µM,0.923
same,relative viability,NCI-H2342; first compound 8 µM,0.654
same,relative viability,COR-L 105; first compound 0.253 µM,0.682
same,relative viability,COR-L 105; first compound 0.8 µM,0.863
same,relative viability,COR-L 105; first compound 2.53 µM,0.983
same,relative viability,COR-L 105; first compound 8 µM,0.858
same,relative viability,NCI-H2347; first compound 0.253 µM,0.701
same,relative viability,NCI-H2347; first compound 0.8 µM,0.611
same,relative viability,NCI-H2347; first compound 2.53 µM,0.722
same,relative viability,NCI-H2347; first compound 8 µM,0.448
same,relative viability,NCI-H358; first compound 0.8 µM,0.748
same,relative viability,NCI-H358; first compound 2.53 µM,0.745
same,relative viability,NCI-H358; first compound 8 µM,0.72
same,relative viability,NCI-H1650; first compound 0.253 µM,0.545
same,relative viability,NCI-H1650; first compound 0.8 µM,0.527
same,relative viability,NCI-H1650; first compound 2.53 µM,0.543
same,relative viability,NCI-H1650; first compound 8 µM,0.664
same,relative viability,HOP-62; first compound 0.253 µM,0.56
same,relative viability,HOP-62; first compound 0.8 µM,0.565
same,relative viability,HOP-62; first compound 2.53 µM,0.662
same,relative viability,HOP-62; first compound 8 µM,0.519
same,relative viability,NCI-H1993; first compound 0.253 µM,0.872
same,relative viability,NCI-H1993; first compound 0.8 µM,0.615
same,relative viability,NCI-H1993; first compound 2.53 µM,0.962
same,relative viability,NCI-H1993; first compound 8 µM,0.383
same,relative viability,NCI-H1666; first compound 0.253 µM,1.05
same,relative viability,NCI-H1666; first compound 0.8 µM,1.01
same,relative viability,NCI-H1666; first compound 2.53 µM,1.14
same,relative viability,NCI-H1666; first compound 8 µM,1.04
